Measured values: patent US20050238734A1, “Detection of nitrosylated proteins” (University of Vermont and State Agricultural College, priority 2004, published 2005)

Tests used:
[1] = system: C10 cells; assay: In situ detection of S-nitrosylated proteins in intact cells (biotin derivatization, streptavidin-FITC, confocal microscopy); assay type: cell-based, mouse; conditions: 1 mM, 1 hour
Description: A line of spontaneously transformed mouse lung alveolar type II epithelial cells (C10) was used in some experiments, as described below. C10 cells were cultured in CMRL1066 medium containing 10% fetal bovine serum (FBS, GIBCO). In experiments involving microscopic analysis, the cells were grown on glass cover slips. At about one hour prior to exposure to a test agent, the medium was switched to phenol red free DMEM/F12 containing 0.5% FBS. Some cells were exposed to S-nitroso-glutathione (GSNO) or S-nitroso-N-acetyl penicillamine (SNAP) for about 1 hour, in the presence of an equimolar concentration of freshly prepared L-cysteine. To monitor S-nitrosylation in response to NOS2 activation, the cells were treated with 10 ng/ml TNF alpha (TNFα) and 100 U/ml interferon gamma (IFNγ), for about 24 hours. Incubation with L-N-monomethyl arginine (L-NMMA) for about 16 hours was used to inhibit endogenous NO production and D-NMMA (D-N-monomethyl arginine) was used as a control. Nuclear export was blocked by leptomycin B (5 ng/ml, exposure for about 12 hours). All experiments were performed in duplicate and were repeated at least three times.
To evaluate the localization of S-nitrosylated proteins in intact cells, the biotin derivatization method described above was used in combination with fluorophore labeling and visualized using confocal microscopy. Cells grown on cover slips were rinsed with PBS containing 0.1 mM EDTA and 0.01 mM neocuproine, and fixed in 4% PFA (paraformaldehyde) for 20 minutes at RT. The cells were permeabilized, and protein SH groups were blocked using HEN buffer containing 2.5% SDS, 0.5% CHAPS, and 20 mM MMTS (methylmethanethiosulfonate) for 20 min at 55° C. with constant shaking. After removal of MMTS, the cells were incubated with 1 mM sodium ascorbate and 0.4 mM biotin-HPDP (N-[6-(biotinamido)hexyl]-3′-(2′-pyridyldithio)propionamide) for about an hour at RT, and the cover slips were then incubated overnight with streptavidin-FITC at 4° C. Blocking was performed using 20 mM NEM for 30 minutes at 4° C., followed by incubation with 0.05 mM MPB and 1 mM sodium ascorbate for 1 hour at RT. The nuclei were stained with 10 microgram/ml PI (propidium iodide) for 30 minutes at RT. The cells were analyzed by confocal microscopy (magnification 40×) using an Olympus BX50 microscope coupled to a Bio-Rad (Hercules Calif.) MRC 1024 confocal scanning laser microscope system. Control experiments were also performed in which blocking of SH groups was omitted, or in which 100 micromolar HgCl2 was added prior to blocking of SH groups with MMTS or NEM. To assess the contribution of endogenous biotinylated proteins, the biotin-label was omitted in some control cover slips. All manipulations were performed in the dark. […]

[2] = target: T1, RanGTPase (Mus musculus, UniProt P62827); assay: SNO content of immunoprecipitated RanGTPase by chemiluminescence; assay type: cell-based; conditions: 1 mM, about 1 hour
T1 construct: Ran was immunoprecipitated from equivalent amounts of total cell lysates; endogenous in cells; host or cells: C10 mouse lung alveolar type II epithelial cells
Description: S-nitrosothiols were detected in cell lysates or immunoprecipitated protein by chemiluminescence, using a nitric oxide analyzer (Ionics, Boulder, Colo.). Cell lysates were incubated for about 15 minutes in the presence or absence of sulfanilamide (0.5%).
Ran was immunoprecipitated from equivalent amounts of total cell lysates, using a Ran goat polyclonal IgG (Santa Cruz) and protein G-agarose beads. The immunoprecipitates were washed three times with HEN buffer (25 mM HEPES, pH 7.7, 0.1 mM EDTA, 0.01 mM neocuproine) and the immunocomplexes were injected into the purge vessel for NO analysis.
Chemiluminescence was first performed to detect the S-nitrosylation of immunoprecipitated RanGTPase. […] In these experiments, the cells were treated with 1 mM GSNO for about 1 hour, washed, and Ran was immunoprecipitated form the total lysate using a Ran-specific antibody and protein G agarose beads. The immunocomplexes were washed three times and directly injected into the purge vessel using techniques similar to those described in Example 1. As a control, pre-immune IgG was used instead of Ran antibody. Western blot analysis confirmed the presence of RanGTPase in the immunocomplexes (FIG. 7B).

[3] = system: lungs of Balb/c mice; assay: Detection of S-nitrosylated proteins in frozen lung sections after intratracheal administration; assay type: in vivo, mouse; conditions: 50 microliters of 10 mM intratracheally, about 2 hours, versus PBS
[4] = target: T1, RanGTPase; assay: Biotin derivatization of RanGTPase, immunoprecipitation, Western blot with streptavidin-HRP; assay type: cell-based; conditions: after treatment of cells, versus basal
Description: Biotin labeling of S-nitrosylated proteins in cell lysates proceeded as follows. At selected time points, cells were rinsed with PBS containing 0.1 mM EDTA and 0.01 mM neocuproine and lysed in HEN buffer containing 0.1% SDS, 0.5% CHAPS, and 20 mM NEM (N-ethylmaleimide) by rocking for 30 minutes at 4° C. The lysates were centrifuged at 14,000 g at 4° C. for about 10 minutes, and the excess NEM used to block sulfhydryl groups (SH) was removed by protein precipitation with acetone. The pellets were resuspended in HEN buffer containing 1% SDS (HENS), and the S-nitrosothiols were reduced and biotinylated by the simultaneous addition of 10 mM sodium ascorbate and 0.05 mM of the sulfhydryl-specific biotinylating agent, MPB (N-(3-maleimidylpropionyl) biocytin, Molecular Probes), for 1 hour at room temperature (RT, about 25° C.). […] Biotinylation of Ran was detected using streptavidin-HRP. […]
To confirm that RanGTPase itself was S-nitrosylated, a biotin derivatization approach was used, including immunoprecipitating RanGTPase and determining biotinylated RanGTPase by Western blotting using streptavidin-HRP. […] Ran was immunoprecipitated from total cell lysates, and biotinylated RanGTPase was determined by Western blotting and by peroxidase-conjugated streptavidin (FIG. 7C, upper panel). […] In the lower panel of FIG. 7C, as a loading control, Ran was detected in whole cell lysates by Western blotting.

[5] = system: Mouse lung epithelial (C10) cells; assay: NO/S-nitrosothiol content of cell lysates by chemiluminescence; assay type: cell-based; conditions: 1 mM GSNO, about one hour
Description: A line of spontaneously transformed mouse lung alveolar type II epithelial cells (C10) was used in some experiments, as described below. […] In experiments involving microscopic analysis, the cells were grown on glass cover slips. At about one hour prior to exposure to a test agent, the medium was switched to phenol red free DMEM/F12 containing 0.5% FBS. Some cells were exposed to S-nitroso-glutathione (GSNO) or S-nitroso-N-acetyl penicillamine (SNAP) for about 1 hour, in the presence of an equimolar concentration of freshly prepared L-cysteine. To monitor S-nitrosylation in response to NOS2 activation, the cells were treated with 10 ng/ml TNF alpha (TNFα) and 100 U/ml interferon gamma (IFNγ), for about 24 hours. […] S-nitrosothiols were detected in cell lysates or immunoprecipitated protein by chemiluminescence, using a nitric oxide analyzer (Ionics, Boulder, Colo.). […] In order to eliminate the contribution of nitrites to the observed photoelectric signal, the cell lysates were incubated with a nitrite quencher, sulfanilamide, and assessed the sulfanilamide resistant NO signal by chemiluminescence. Under these experimental conditions, employing 12 micrograms of protein, S-nitrosthiol was not detected in the sham controls (<5 pmol), but a sulfamilamide-resistant NO signal was detected in lysates from cells treated with GSNO.

SNO content of immunoprecipitated RanGTPase [2]: increase | biotinylation of RanGTPase [4]: enhanced
Compound: N[C@@H](CCC(=O)N[C@@H](CSN=O)C(=O)NCC(=O)O)C(=O)O [GSNO, S-nitroso-glutathione]
biotinylation (S-nitrosylated proteins) in intact cells [1]: enhanced | biotin reactivity (S-nitrosylated proteins) in lungs [3]: markedly increased | sulfanilamide-resistant NO signal (S-nitrosothiol) in lysates ([5]; 12 micrograms of protein): detected | total NO content in lysates ([5]; versus non-treated cells): increased
